{"source": "patent US10538522B2", "about": "“Brassinosteroid mimetics” (The Regents of the University of California, priority 2015, dated 2020)", "key": {"bri1-6 mutant seedling": {"test_system": "bri1-6 mutant seedling", "assay": "Growth of mutant seedling defective in brassinosteroid receptor BRI1 (FIG. 4)", "type": "in vivo"}, "Arabidopsis seedlings": {"test_system": "Arabidopsis seedlings", "assay": "Hypocotyl length / plant height of seedlings treated with brassinosteroid mimetic (FIG. 1, FIG. 2)", "type": "in vivo", "conditions": "versus untreated plants", "description": "(A) Arabidopsis seedlings were grown for 7 days in light in the presence of increasing concentrations of a brassinosteroid mimetic of the disclosure. (B) a photo of seedlings grown at 0 and 20 μM of brassinosteroid mimetic.\nThe brassinosteroid mimetics of the disclosure were tested and shown to block ethylene response by hyperactivating brassinosteroid signaling. The application of any one of the brassinosteroid mimetics of the disclosure, which are all closely related, results in massive increases in plant size. […] Additionally, reduction of internal concentrations of brassinosteroids by inhibition of brassinosteroid biosynthesis reduces the effects of the mimetic on growth. In FIG. 1, one can see the promotive effects of F1874-0108 (inset), a brassinosteroid mimetic of the disclosure, on plant height, with chemical treated plants being almost 100% taller than untreated plants. Hyperactivation of brassinosteroid signaling represents an effective means to increase plant biomass and increase the capability of plants with regard to disease resistance and other brassinosteroid regulated phenomena."}, "[1]": {"test_system": "seedlings treated with an inhibitor of BR synthesis (brassinazole)", "assay": "Hypocotyl length of seedlings with brassinosteroid synthesis inhibited by brassinazole (FIG. 1, FIG. 3)", "type": "in vivo, Arabidopsis", "description": "Seedlings were treated with an inhibitor of BR synthesis (brassinazole; (BZ)). […] This is not consistent with what is seen for Bikinin, which is a constitutive activator of BR signaling and would be independent of BR synthesis (i.e. treatment with BZ would not result in inhibition of hypocotyl length in the presence of BZ).\nIn FIG. 1, brassinosteroid production was limited by addition of brassinazole (BZ, which is a chemical inhibitor of brassinosteroid biosynthesis). […] In stark contrast, addition of brassinolide plus mimetic severely curtails this burst in growth because mimetic prevents the full inhibition of BIN2."}}, "data": [{"compound": "O=C(O)CCC(=O)Nc1ccc(Br)cn1", "note": "[Bikinin]", "values": [{"measurement": "activation of BR pathway / hypocotyl growth", "setting": "bri1-6 mutant seedling", "value": "promotion of long hypocotyls independent of BR"}]}, {"compound": "CCOC(=O)CSc1ncnc2c1cnn2-c1ccccc1", "note": "[F1874-0108]", "values": [{"measurement": "plant height, chemical treated plants taller than untreated plants", "setting": "Arabidopsis seedlings", "value": "~100", "unit": "%"}, {"measurement": "seedling length versus BZ treated only", "setting": "[1]; BZ treated, no exogenous brassinolide added", "value": "substantially longer"}]}, {"compound": "CC(O)(c1ccccc1)C(Cc1ccc(Cl)cc1)n1cncn1", "note": "(centres unmarked) [brassinazole]", "values": [{"measurement": "hypocotyl length", "setting": "[1]; FIG. 3, BZ alone", "value": "shortening of the hypocotyls"}]}, {"compound": "CC(C)[C@H](C)[C@@H](O)[C@H](O)[C@@H](C)[C@H]1CC[C@H]2[C@@H]3COC(=O)[C@H]4C[C@H](O)[C@H](O)C[C@]4(C)[C@H]3CC[C@]12C", "note": "[brassinolide]", "values": [{"measurement": "increase in length of BZ seedlings", "setting": "[1]; BZ treated, exogenous brassinolide added back", "value": "~400", "unit": "%"}]}]}
